{"source": "patent US20090030013A1", "about": "“SUBSTITUTED TETRAHYDRO-QUINOLINE-SULFONAMIDE COMPOUNDS, THEIR PREPARATION AND USE AS MEDICAMENTS” (LABORATORIES DEL DR. ESTEVE, S.A., priority 2007, published 2009)", "target": "T1, 5HT6-human recombinant receptor (Homo sapiens, UniProt P50406)", "T1 construct": "purchased Receptor Biology; host or cells: HEK-293 cell membranes", "T1 sequence (P50406 whole entry)": "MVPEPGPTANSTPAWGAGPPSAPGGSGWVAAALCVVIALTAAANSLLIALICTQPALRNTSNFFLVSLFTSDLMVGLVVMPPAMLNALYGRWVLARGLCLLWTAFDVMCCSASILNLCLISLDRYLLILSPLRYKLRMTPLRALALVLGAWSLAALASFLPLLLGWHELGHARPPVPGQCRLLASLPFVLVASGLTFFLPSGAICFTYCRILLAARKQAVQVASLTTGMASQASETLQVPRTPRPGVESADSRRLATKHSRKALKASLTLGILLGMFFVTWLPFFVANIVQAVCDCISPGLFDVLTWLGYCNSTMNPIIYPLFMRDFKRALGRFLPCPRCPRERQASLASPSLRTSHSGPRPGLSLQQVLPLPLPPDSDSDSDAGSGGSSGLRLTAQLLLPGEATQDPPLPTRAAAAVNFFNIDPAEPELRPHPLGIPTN", "test": "Binding to serotonin receptor 5-HT6 ([3H]-LSD radioligand displacement)", "settings": "[3H]-LSD 2.7 nM, HEK-293 cell membranes", "experimental": "I) Binding to Serotonin Receptor 5-HT6\nCell membranes of HEK-293 cells expressing the 5HT6-human recombinant receptor were supplied by Receptor Biology. In said membranes the receptor concentration is 2.18 pmol/mg protein and the protein concentration is 9.17 mg/ml. The experimental protocol follows the method of B. L. Roth et al. [B. L. Roth, S. C. Craigo, M. S. Choudhary, A. Uluer, F. J. Monsma, Y. Shen, H. Y. Meltzer, D. R. Sibley: Binding of Typical and Atypical Antipsychotic Agents to 5-Hydroxytryptamine-6 and Hydroxytryptamine-7 Receptors. The Journal of Pharmacology and Experimental Therapeutics, 1994, 268, 1403] with the following slight changes. The respective part of the literature description is hereby incorporated by reference and forms part of the disclosure.\nThe commercial membrane is diluted (1:40 dilution) with the binding buffer: 50 mM Tris-HCl, 10 mM MgCl2, 0.5 mM EDTA (pH 7.4). The radioligand used is [^3H]-LSD at a concentration of 2.7 nM with a final volume of 200 μl. […] Non-specific binding is determined in the presence of 100 μM of serotonin. […] The inhibition constants (Ki, nM) were calculated by non-linear regression analysis using the program EBDA/LIGAND [Munson and Rodbard, Analytical Biochemistry, 1980, 107, 220]., the respective part of which is hereby incorporated by reference and forms part of the disclosure.", "note": "Counter-ions that a name gives are not always drawn."}
{"smiles": "CC1CCc2c(N3CCNCC3)cccc2N1S(=O)(=O)c1cccc2ccccc12", "note": "(stereo not drawn) [Compound 3, 1,2,3,4-tetrahydro-2-methyl-5-(piperazin-1-yl)-1-α-naphthylsulfonyl)quinoline trifluoroacetate]", "values": [{"measurement": "Ki", "setting": "tests in triplicate", "result": "31.4 ± 0.8", "unit": "nM"}, {"measurement": "inhibition at 0.1 µM", "setting": "compound at 10^−7 M", "result": 85.8, "unit": "%"}]}
